Assays:
BNL CL.2 cells = assay: Clonogenic assay after X-ray irradiation; format: cell-based, mouse; conditions: 30 μM, 2 h pretreatment, X-ray 2, 4, 6 Gy, colonies after two weeks
Excerpt: (§1) Eight groups of BNL CL.2 cells (i.e., a normal control group referred to as Normal Control Group 1-A, an isorhamnetin-3-O-β-D-glucoside group referred to as Isorhamnetin-3-O-β-D-glucoside Group 1-A, three X-ray control groups referred to as X-Ray Control Groups 1-A to 3-A, and three experimental groups referred to as Experimental Groups 1-A to 3-A) and eight groups of NMuMG cells (i.e., a normal control group referred to as Normal Control Group 1-B, an isorhamnetin-3-O-β-D-glucoside group referred to as Isorhamnetin-3-O-β-D-glucoside Group 1-B, three X-ray control groups referred to as X-Ray Control Groups 1-B to 3-B, and three experimental groups referred to as Experimental Groups 1-B to 3-B) were prepared based on the procedure set forth in “Source and cultivation of cell lines” of “Experimental materials”. Specifically, BNL CL.2 cells in each group were cultivated using 5 mL of a corresponding medium shown in Table 1 and a 6-cm Petri dish in an amount of 2×10^5 cells per dish. Likewise, NMuMG cells in each group were cultivated using 5 mL of a corresponding medium shown in Table 1 and a 6-cm Petri dish in an amount of 2.5×10^5 cells per dish. The cultivation was conducted in an incubator (37° C., 5% CO2) for 24 hours. […]

NMuMG cells = assay: Clonogenic assay after X-ray irradiation; format: cell-based, mouse; conditions: 30 μM, 2 h pretreatment, X-ray 2, 4, 6 Gy, colonies after two weeks
Excerpt: as §1

SMILES: COc1cc(-c2oc3cc(O)cc(O)c3c(=O)c2O[C@@H]2O[C@H](CO)[C@@H](O)[C@H](O)[C@H]2O)ccc1O [isorhamnetin-3-O-β-D-glucoside]
- survival fraction (clonogenic assay) versus X-ray control group (BNL CL.2 cells): higher than that of the X-ray control group
- survival fraction (clonogenic assay) versus X-ray control group (NMuMG cells): higher than that of the X-ray control group

Reference: patent US9821002B2, “Method for alleviating radiation injury with isorhamnetin-3-O-β-D-glucoside” (Sinotai Oncology Associate., Ltd., priority 2015, dated 2017)
